Measured values published in ChEMBL document CHEMBL5038570, “Discovery of Novel Pyrrolo[2,3-d]pyrimidine-based Derivatives as Potent JAK/HDAC Dual Inhibitors for the Treatment of Refractory Solid Tumors” (J Med Chem, 2022).

What was measured:
[1] = target: Tyrosine-protein kinase JAK2 (Homo sapiens, UniProt O60674); assay: Inhibition of JAK2 (unknown origin) preincubated for 60 mins followed by reagent A addition and measured after 60 mins in presence of ATP by using microplate reader method
[2] = target: T1, Protein deacetylase HDAC6 (Homo sapiens, UniProt Q9UBN7); assay: Inhibition of HDAC6 (unknown origin) incubated for 60 mins by microplate reader analysis
T1 sequence (Q9UBN7 whole entry): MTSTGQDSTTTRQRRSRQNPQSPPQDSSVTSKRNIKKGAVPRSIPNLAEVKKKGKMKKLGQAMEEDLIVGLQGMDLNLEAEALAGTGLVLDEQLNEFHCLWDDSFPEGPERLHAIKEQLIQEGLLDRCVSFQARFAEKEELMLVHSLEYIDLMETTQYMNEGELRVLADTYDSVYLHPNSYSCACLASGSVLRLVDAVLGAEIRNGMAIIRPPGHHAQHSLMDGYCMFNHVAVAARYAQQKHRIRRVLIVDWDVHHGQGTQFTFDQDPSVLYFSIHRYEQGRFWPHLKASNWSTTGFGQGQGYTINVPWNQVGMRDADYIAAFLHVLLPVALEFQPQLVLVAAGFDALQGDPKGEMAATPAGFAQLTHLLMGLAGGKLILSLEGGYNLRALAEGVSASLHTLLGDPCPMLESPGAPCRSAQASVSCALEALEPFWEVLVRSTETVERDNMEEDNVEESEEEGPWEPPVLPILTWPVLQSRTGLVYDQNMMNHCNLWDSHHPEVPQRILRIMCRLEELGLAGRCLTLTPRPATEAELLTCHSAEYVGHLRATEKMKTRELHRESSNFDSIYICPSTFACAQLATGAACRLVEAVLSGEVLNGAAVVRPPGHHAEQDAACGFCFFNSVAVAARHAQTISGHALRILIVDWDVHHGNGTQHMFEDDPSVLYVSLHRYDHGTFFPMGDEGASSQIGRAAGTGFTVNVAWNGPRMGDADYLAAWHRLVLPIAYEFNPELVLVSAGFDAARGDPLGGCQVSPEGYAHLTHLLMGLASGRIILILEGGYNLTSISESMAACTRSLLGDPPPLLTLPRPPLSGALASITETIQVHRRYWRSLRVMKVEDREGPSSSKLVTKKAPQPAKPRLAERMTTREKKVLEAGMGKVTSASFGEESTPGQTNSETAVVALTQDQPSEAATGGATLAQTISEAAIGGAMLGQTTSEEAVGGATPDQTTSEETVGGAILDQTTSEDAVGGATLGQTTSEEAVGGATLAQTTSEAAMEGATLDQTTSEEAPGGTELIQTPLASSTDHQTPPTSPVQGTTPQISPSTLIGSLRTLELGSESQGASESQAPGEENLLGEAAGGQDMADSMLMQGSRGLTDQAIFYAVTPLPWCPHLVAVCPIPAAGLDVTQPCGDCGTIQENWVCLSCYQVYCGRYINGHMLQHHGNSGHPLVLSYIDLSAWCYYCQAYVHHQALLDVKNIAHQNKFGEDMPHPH

[3] = target: T2, Tyrosine-protein kinase JAK3 (Homo sapiens, UniProt P52333); assay: Inhibition of JAK3 (unknown origin) preincubated for 60 mins followed by reagent A addition and measured after 60 mins in presence of ATP by using microplate reader method
T2 sequence (P52333 whole entry): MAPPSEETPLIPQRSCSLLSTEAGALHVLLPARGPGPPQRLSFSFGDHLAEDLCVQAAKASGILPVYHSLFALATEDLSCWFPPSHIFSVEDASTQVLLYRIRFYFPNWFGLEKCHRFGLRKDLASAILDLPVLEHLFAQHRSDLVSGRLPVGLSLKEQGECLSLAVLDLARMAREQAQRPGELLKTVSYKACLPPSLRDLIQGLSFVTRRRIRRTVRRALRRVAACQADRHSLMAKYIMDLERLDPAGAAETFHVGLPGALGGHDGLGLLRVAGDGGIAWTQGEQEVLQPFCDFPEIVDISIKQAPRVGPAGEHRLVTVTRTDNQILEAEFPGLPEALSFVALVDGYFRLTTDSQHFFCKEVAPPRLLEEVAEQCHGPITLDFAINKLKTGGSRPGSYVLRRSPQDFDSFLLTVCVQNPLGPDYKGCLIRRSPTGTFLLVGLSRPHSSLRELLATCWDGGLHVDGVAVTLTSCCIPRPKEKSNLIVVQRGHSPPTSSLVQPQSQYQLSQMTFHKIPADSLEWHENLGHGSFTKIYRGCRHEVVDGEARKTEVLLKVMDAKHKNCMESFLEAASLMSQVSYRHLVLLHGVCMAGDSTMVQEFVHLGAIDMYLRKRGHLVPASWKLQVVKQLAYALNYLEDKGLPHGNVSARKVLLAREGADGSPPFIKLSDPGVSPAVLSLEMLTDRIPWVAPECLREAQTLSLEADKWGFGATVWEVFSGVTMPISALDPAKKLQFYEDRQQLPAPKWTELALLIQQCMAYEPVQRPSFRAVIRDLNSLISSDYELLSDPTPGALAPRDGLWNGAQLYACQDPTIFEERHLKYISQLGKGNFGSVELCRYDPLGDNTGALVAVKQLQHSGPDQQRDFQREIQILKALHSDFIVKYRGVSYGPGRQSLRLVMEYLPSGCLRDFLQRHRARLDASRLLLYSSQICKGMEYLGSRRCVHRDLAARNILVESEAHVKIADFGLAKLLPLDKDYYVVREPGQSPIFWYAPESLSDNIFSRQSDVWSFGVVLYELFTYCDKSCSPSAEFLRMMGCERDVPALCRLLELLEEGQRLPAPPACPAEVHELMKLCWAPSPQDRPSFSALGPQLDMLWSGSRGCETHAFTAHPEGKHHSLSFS

[4] = target: Tyrosine-protein kinase JAK1 (Homo sapiens, UniProt P23458); assay: Inhibition of JAK1 (unknown origin) preincubated for 60 mins followed by reagent A addition and measured after 60 mins in presence of ATP by using microplate reader method
[5] = target: Histone deacetylase 1 (Homo sapiens, UniProt Q13547); assay: Inhibition of HDAC1 (unknown origin) incubated for 60 mins using microplate reader analysis
[6] = target: Non-receptor tyrosine-protein kinase TYK2 (Homo sapiens, UniProt P29597); assay: Inhibition of TYK2 (unknown origin) incubated for 40 min in presence of ATP by microplate reader analysis
[7] = target: T3, Protein deacetylase HDAC6 (Homo sapiens) (UniProt Q9UBN7); assay: Inhibition of HDAC6 (unknown origin) at 10 nM incubated for 60 mins by microplate reader analysis relative to control
T3 sequence (whole entry): T1 sequence (Q9UBN7 whole entry)

[8] = test system: MDA-MB-468; assay: cells; type: functional, cell-based; settings: Homo sapiens, MDA-MB-468, 72 h
[9] = test system: CAL-51; assay: cells; type: functional, cell-based; settings: Homo sapiens, CAL-51, 72 h
[10] = test system: MDA-MB-231; assay: cells; type: functional, cell-based; settings: Homo sapiens, MDA-MB-231, 72 h
[11] = test system: BT-549; assay: cells; type: functional, cell-based; settings: Homo sapiens, BT-549, 72 h
[12] = test system: 4T1; assay: cells; type: functional, cell-based; settings: Mus musculus, 4T1, 72 h

Non-receptor tyrosine-protein kinase TYK2, sequence (P29597 whole entry): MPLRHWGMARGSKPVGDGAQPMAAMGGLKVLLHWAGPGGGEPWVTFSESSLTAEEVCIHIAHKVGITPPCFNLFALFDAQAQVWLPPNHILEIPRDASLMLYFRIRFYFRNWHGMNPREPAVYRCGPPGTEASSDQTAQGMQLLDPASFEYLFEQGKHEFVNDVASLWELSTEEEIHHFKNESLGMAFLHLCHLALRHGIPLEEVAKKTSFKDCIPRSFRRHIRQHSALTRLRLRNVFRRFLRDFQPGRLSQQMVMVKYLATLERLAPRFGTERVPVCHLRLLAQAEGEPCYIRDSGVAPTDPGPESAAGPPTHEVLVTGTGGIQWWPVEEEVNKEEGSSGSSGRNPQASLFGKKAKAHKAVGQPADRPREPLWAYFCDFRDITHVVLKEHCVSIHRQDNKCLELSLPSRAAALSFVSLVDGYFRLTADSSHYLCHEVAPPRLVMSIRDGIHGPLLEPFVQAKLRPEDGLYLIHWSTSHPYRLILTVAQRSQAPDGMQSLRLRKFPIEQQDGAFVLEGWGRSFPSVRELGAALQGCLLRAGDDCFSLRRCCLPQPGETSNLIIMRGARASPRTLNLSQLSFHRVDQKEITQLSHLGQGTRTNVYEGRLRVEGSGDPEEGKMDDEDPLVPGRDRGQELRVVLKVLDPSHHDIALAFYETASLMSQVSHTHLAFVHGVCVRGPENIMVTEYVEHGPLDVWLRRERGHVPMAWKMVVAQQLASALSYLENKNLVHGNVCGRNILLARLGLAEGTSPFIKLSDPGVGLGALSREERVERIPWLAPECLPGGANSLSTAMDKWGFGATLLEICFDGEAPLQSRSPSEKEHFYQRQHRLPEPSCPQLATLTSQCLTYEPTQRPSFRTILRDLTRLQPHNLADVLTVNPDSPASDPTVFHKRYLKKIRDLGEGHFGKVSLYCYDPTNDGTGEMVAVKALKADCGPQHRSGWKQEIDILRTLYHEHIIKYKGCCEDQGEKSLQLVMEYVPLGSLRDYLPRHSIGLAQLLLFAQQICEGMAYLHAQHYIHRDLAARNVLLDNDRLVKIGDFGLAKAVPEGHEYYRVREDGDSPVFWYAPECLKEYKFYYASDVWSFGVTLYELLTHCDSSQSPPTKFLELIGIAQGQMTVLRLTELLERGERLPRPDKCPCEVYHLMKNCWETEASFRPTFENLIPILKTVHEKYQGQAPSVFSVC
Tyrosine-protein kinase JAK1, sequence (P23458 whole entry): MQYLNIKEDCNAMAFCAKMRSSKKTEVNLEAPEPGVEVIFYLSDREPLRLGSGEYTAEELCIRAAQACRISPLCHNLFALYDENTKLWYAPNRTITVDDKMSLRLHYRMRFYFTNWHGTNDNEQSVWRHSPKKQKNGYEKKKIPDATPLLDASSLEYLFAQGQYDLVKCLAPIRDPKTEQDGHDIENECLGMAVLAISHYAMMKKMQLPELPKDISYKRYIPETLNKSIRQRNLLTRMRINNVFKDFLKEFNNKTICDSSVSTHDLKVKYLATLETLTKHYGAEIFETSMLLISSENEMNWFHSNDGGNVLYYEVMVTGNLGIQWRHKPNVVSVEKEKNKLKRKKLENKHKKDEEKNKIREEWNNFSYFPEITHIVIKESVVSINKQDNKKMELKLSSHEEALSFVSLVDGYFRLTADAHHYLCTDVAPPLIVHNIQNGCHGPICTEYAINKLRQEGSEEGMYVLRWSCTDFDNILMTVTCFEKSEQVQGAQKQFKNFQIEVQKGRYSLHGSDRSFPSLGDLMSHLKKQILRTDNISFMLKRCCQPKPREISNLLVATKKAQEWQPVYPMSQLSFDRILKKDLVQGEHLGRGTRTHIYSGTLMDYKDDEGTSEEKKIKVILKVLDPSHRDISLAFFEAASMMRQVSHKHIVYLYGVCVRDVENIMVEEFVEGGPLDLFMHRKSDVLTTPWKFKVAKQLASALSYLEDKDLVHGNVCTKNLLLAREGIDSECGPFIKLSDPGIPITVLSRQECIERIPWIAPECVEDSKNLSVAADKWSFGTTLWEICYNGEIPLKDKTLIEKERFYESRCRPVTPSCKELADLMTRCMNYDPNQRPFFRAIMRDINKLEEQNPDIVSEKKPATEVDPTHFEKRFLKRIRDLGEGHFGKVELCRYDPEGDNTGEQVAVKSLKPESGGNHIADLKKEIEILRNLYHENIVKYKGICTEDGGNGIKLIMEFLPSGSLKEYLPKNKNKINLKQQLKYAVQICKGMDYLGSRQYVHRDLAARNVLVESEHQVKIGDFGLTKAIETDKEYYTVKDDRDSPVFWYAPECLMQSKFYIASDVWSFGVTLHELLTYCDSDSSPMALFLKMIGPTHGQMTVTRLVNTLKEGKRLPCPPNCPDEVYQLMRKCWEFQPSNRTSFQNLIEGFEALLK
Histone deacetylase 1, sequence (Q13547 whole entry): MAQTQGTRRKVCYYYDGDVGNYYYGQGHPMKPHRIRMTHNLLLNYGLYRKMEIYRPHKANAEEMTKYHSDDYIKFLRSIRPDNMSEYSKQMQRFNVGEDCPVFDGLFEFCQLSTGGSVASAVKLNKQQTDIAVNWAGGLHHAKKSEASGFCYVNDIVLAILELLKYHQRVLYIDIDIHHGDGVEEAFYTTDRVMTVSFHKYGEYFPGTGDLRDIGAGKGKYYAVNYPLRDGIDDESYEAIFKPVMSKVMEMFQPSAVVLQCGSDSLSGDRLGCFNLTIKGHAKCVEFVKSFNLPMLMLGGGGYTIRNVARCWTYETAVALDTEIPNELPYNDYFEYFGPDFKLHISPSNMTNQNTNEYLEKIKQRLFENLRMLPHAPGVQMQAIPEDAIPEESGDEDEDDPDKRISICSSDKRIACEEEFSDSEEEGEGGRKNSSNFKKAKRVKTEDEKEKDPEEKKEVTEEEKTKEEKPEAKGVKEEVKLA
Tyrosine-protein kinase JAK2, sequence (O60674 whole entry): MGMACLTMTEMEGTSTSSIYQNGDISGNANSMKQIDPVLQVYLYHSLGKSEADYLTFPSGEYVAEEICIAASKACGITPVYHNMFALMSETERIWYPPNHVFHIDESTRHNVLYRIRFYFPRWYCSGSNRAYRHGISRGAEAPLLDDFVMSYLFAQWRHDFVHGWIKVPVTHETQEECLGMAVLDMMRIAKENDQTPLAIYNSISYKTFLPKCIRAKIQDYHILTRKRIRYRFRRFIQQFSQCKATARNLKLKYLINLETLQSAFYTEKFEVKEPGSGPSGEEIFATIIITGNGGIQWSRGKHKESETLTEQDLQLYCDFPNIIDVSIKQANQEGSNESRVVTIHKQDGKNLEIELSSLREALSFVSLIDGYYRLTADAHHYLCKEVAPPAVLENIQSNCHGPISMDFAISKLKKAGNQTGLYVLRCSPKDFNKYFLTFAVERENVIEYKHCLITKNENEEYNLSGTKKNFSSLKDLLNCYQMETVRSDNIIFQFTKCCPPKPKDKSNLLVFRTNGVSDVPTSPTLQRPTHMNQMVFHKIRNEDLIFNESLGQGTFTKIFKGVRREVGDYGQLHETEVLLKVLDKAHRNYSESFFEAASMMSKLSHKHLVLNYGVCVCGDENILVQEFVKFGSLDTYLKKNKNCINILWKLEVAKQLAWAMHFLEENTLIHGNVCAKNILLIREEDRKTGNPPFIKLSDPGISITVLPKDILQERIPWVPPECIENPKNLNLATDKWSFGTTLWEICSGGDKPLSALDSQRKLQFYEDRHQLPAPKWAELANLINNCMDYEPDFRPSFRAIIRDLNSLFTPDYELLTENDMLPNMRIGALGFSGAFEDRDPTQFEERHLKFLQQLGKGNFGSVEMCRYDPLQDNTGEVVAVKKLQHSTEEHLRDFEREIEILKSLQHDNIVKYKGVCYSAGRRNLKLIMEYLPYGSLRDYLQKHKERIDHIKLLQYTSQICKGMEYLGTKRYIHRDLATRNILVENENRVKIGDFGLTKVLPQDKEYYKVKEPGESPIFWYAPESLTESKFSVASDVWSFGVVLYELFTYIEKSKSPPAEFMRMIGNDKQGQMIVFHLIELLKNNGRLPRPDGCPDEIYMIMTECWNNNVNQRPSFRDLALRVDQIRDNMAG

SMILES | IC50 [1] [nM] | IC50 [2] [nM] | inhibition [7] [%] | also measured
O=C(CCCCCCn1cc(Nc2ncc3ccn(CC4CC4)c3n2)cn1)NO | > 100 | 16 |  | 
O=C(CCCCCCn1cc(Nc2ncc3ccn(Cc4ccccc4Cl)c3n2)cn1)NO | 30.8 | 41.5 |  | 
COc1cccc(Cn2ccc3cnc(Nc4cnn(CCCCCC(=O)NO)c4)nc32)c1 | 124 | 37.6 |  | 
O=C(CCCCCCn1cc(Nc2ncc3ccn(-c4ccc(F)cc4)c3n2)cn1)NO | 32.9 | 21.6 |  | 
O=C(CCCCCCn1cc(Nc2nccc(-c3cc(F)cc(F)c3)n2)cn1)NO | 2660 |  |  | 
O=C(CCCCCCn1cc(Nc2ncc3ccn(CCc4ccccc4)c3n2)cn1)NO | > 100 |  | 49 | 
O=C(CCCCCCn1cc(Nc2ncc3ccn(-c4ccc(Br)cc4)c3n2)cn1)NO | 54.8 | 20.2 |  | 
CS(=O)(=O)c1ccc(-n2ccc3cnc(Nc4cnn(CCCCCC(=O)NO)c4)nc32)cc1 | 9.8 | 10.8 |  | 
O=C(CCCCCCn1cc(Nc2ncc3ccn(CC4CCCCC4)c3n2)cn1)NO | 69 | 88 |  | 
O=C(CCCCCCn1cc(Nc2ncc3ccn(-c4ccccc4)c3n2)cn1)NO | 16.8 | 13.1 |  | IC50 [3]: 81.2 nM; IC50 [4]: 19.6 nM; IC50 [5]: 52.1 nM; IC50 [6]: 23.5 nM
O=C(CCCCCCn1cc(Nc2ncc3ccn(C4CCCC4)c3n2)cn1)NO | > 100 | 22 |  | 
O=C(CCCCCCn1cc(Nc2nc(Nc3cccc(Cl)c3)c3ccccc3n2)cn1)NO | 9400 |  |  | 
O=C(CCCCCn1cc(Nc2ncc3ccn(CCc4ccccc4)c3n2)cn1)NO | > 100 |  | 41 | 
CS(=O)(=O)c1ccc(-n2ccc3cnc(Nc4cnn(CCCCCCC(=O)NO)c4)nc32)cc1 | 15.7 | 5.9 |  | 
COc1cccc(Cn2ccc3cnc(Nc4cnn(CCCCCCC(=O)NO)c4)nc32)c1 | 209 | 28.8 |  | 
O=C(CCCCCn1cc(Nc2ncc3ccn(-c4ccc(Br)cc4)c3n2)cn1)NO | 17.5 | 11.3 |  | 

Second part, led by results:

IC50 [1] [nM] | IC50 [2] [nM] | inhibition [7] [%] | SMILES | also measured
4.1 | 13.7 |  | O=C(CCCCCn1cc(Nc2ncc3ccn(Cc4cccc(F)c4)c3n2)cn1)NO | IC50 [3]: 12.6 nM; IC50 [4]: 8.7 nM; IC50 [5]: 173 nM
10 | 15.3 |  | O=C(CCCCCn1cc(Nc2ncc3ccn(Cc4ccccc4F)c3n2)cn1)NO | IC50 [3]: 18.4 nM; IC50 [4]: 32.3 nM; IC50 [5]: 145 nM; IC50 [6]: 13.3 nM
> 100 |  | 39 | O=C(CCCCCCn1cc(Nc2ncc3ccn(Cc4ccc(Cl)cc4)c3n2)cn1)NO | 
51 | 12.5 |  | O=C(CCCCCCn1cc(Nc2ncc3ccn(Cc4ccccc4)c3n2)cn1)NO | 
15.7 | 14.7 |  | O=C(CCCCCCn1cc(Nc2ncc3ccn(Cc4cccc(F)c4)c3n2)cn1)NO | IC50 [8]: 2450 nM; IC50 [9]: 1280 nM; IC50 [10]: 3940 nM; IC50 [3]: 16.1 nM; IC50 [11]: 3020 nM; IC50 [12]: 3720 nM; IC50 [4]: 19.9 nM; IC50 [5]: 92.1 nM; IC50 [6]: 21.7 nM
24.8 | 45 |  | O=C(CCCCCn1cc(Nc2ncc3ccn(Cc4ccccc4Cl)c3n2)cn1)NO | 
> 100 |  | 62 | O=C(CCCCCCn1cc(Nc2ncc3ccn(Cc4ccc(F)cc4)c3n2)cn1)NO | 
> 100 |  | 46 | O=C(CCCCCn1cc(Nc2ncc3ccn(Cc4ccc(F)cc4)c3n2)cn1)NO | 
> 100 |  | 38 | Cc1ccc(Cn2ccc3cnc(Nc4cnn(CCCCCCC(=O)NO)c4)nc32)cc1 | 
39.8 | 36.8 |  | O=C(CCCCCCn1cc(Nc2ncc3ccn(Cc4cccc(Cl)c4)c3n2)cn1)NO | 
48.2 | 33.4 |  | O=C(CCCCCCn1cc(Nc2ncc3ccn(-c4ccc(Cl)cc4)c3n2)cn1)NO | 
17.7 | 34.4 |  | O=C(CCCCCn1cc(Nc2ncc3ccn(Cc4cccc(Cl)c4)c3n2)cn1)NO | 
> 100 |  | 34 | Cc1ccc(Cn2ccc3cnc(Nc4cnn(CCCCCC(=O)NO)c4)nc32)cc1 | 
> 100 |  | 40 | COc1ccc(Cn2ccc3cnc(Nc4cnn(CCCCCCC(=O)NO)c4)nc32)cc1 | 
> 100 |  | 46 | COc1ccc(Cn2ccc3cnc(Nc4cnn(CCCCCC(=O)NO)c4)nc32)cc1 | 
> 100 |  | 38 | O=C(CCCCCn1cc(Nc2ncc3ccn(Cc4ccc(Cl)cc4)c3n2)cn1)NO | 
33 | 13.8 |  | O=C(CCCCCn1cc(Nc2ncc3ccn(Cc4ccccc4)c3n2)cn1)NO | 
